Results taken from PubChem BioAssay (NCI).
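96-well plates; 48 h exposure; 5 concentrations. Endpoints by linear interpolation between flanking doses. Not reached: highest tested concentration assigned. GI50: concentration for 50% inhibition of growth. At the TGI there is no net growth.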

Assays:
Assay in all cases: inhibition of tumour cell growth, NCI panel, 48 h
EKVX NSCLC = test system: EKVX NSCLC
OVCAR-8 ovarian = test system: OVCAR-8 ovarian
SK-MEL-28 melanoma = test system: SK-MEL-28 melanoma
SNB-19 CNS = test system: SNB-19 CNS
HCT-15 colon = test system: HCT-15 colon
DU-145 prostate = test system: DU-145 prostate
UACC-257 melanoma = test system: UACC-257 melanoma
CAKI-1 renal = test system: CAKI-1 renal
SK-MEL-2 melanoma = test system: SK-MEL-2 melanoma
MOLT-4 leukemia = test system: MOLT-4 leukemia
A549 NSCLC = test system: A549 NSCLC
SF-539 CNS = test system: SF-539 CNS
MALME-3M melanoma = test system: MALME-3M melanoma
MDA-MB-468 breast = test system: MDA-MB-468 breast
IGROV1 ovarian = test system: IGROV1 ovarian
MCF7 breast = test system: MCF7 breast
SK-MEL-5 melanoma = test system: SK-MEL-5 melanoma
SN12C renal = test system: SN12C renal
MDA-MB-231 breast = test system: MDA-MB-231 breast
SF-268 CNS = test system: SF-268 CNS
NCI-H460 lung = test system: NCI-H460 lung
COLO 205 colon = test system: COLO 205 colon
SK-OV-3 ovarian = test system: SK-OV-3 ovarian
A498 renal = test system: A498 renal
HS 578T breast = test system: HS 578T breast
LOX IMVI melanoma = test system: LOX IMVI melanoma
CCRF-CEM leukemia = test system: CCRF-CEM leukemia
HT29 colon = test system: HT29 colon
TK-10 renal = test system: TK-10 renal
SR leukemia = test system: SR leukemia
K-562 leukemia = test system: K-562 leukemia
HOP-92 NSCLC = test system: HOP-92 NSCLC
SNB-75 CNS = test system: SNB-75 CNS
UACC-62 melanoma = test system: UACC-62 melanoma
U251 CNS = test system: U251 CNS
NCI-H522 lung = test system: NCI-H522 lung
M14 melanoma = test system: M14 melanoma
RXF 393 renal = test system: RXF 393 renal
NCI-H226 lung = test system: NCI-H226 lung
HL-60(TB) leukemia = test system: HL-60(TB) leukemia
T-47D breast = test system: T-47D breast
786-0 renal = test system: 786-0 renal
KM12 colon = test system: KM12 colon
OVCAR-3 ovarian = test system: OVCAR-3 ovarian
OVCAR-4 ovarian = test system: OVCAR-4 ovarian
ACHN renal = test system: ACHN renal
PC-3 prostate = test system: PC-3 prostate
MDA-MB-435 = test system: MDA-MB-435
SF-295 CNS = test system: SF-295 CNS
OVCAR-5 ovarian = test system: OVCAR-5 ovarian
RPMI-8226 leukemia = test system: RPMI-8226 leukemia
HCC-2998 colon = test system: HCC-2998 colon
SW-620 colon = test system: SW-620 colon
NCI-H23 lung = test system: NCI-H23 lung
HOP-62 NSCLC = test system: HOP-62 NSCLC
BT-549 breast = test system: BT-549 breast
UO-31 renal = test system: UO-31 renal
HCT-116 colon = test system: HCT-116 colon

`O=C(Nc1ccc(F)c(Cl)c1)c1cc(-c2ccc(F)cc2F)ccc1O` was tested, and the GI50 (EKVX NSCLC) was 2.71 µM, the TGI (EKVX NSCLC) was 12.7 µM and the GI50 (OVCAR-8 ovarian) was 3.1 µM. For the same compound, the TGI (OVCAR-8 ovarian) was 13.3 µM, the GI50 (SK-MEL-28 melanoma) was 2.2 µM and the TGI (SK-MEL-28 melanoma) was 9.94 µM. The GI50 (SNB-19 CNS) was 2.95 µM, the TGI (SNB-19 CNS) was 19.1 µM and the GI50 (HCT-15 colon) was 2.31 µM. The TGI (HCT-15 colon) was 10.2 µM, the GI50 (DU-145 prostate) was 3.01 µM and the TGI (DU-145 prostate) was > 100 µM. It also gave a GI50 (UACC-257 melanoma) of 1.67 µM, a TGI (UACC-257 melanoma) of 6.15 µM and a GI50 (CAKI-1 renal) of 1.5 µM. It also gave a TGI (CAKI-1 renal) of 4.97 µM, a GI50 (SK-MEL-2 melanoma) of 1.4 µM and a TGI (SK-MEL-2 melanoma) of 3.71 µM. It also gave a GI50 (MOLT-4 leukemia) of 1.77 µM, a TGI (MOLT-4 leukemia) of 5.47 µM and a GI50 (A549 NSCLC) of 2.95 µM. For the same compound, the TGI (A549 NSCLC) was 15.1 µM, the GI50 (SF-539 CNS) was 2.58 µM and the TGI (SF-539 CNS) was 10.6 µM. For the same compound, the GI50 (MALME-3M melanoma) was 1.91 µM, the TGI (MALME-3M melanoma) was 5.3 µM and the GI50 (MDA-MB-468 breast) was 2.1 µM. The TGI (MDA-MB-468 breast) was 5.51 µM, the GI50 (IGROV1 ovarian) was 3.25 µM and the TGI (IGROV1 ovarian) was 27 µM. For the same compound, the GI50 (MCF7 breast) was 2.48 µM, the TGI (MCF7 breast) was 13.9 µM and the GI50 (SK-MEL-5 melanoma) was 0.832 µM. The TGI (SK-MEL-5 melanoma) was 2.21 µM, the GI50 (SN12C renal) was 2.18 µM and the TGI (SN12C renal) was 8.26 µM. For the same compound, the GI50 (MDA-MB-231 breast) was 1.96 µM, the TGI (MDA-MB-231 breast) was 4.62 µM and the GI50 (SF-268 CNS) was 2.23 µM. For the same compound, the TGI (SF-268 CNS) was 9.68 µM, the GI50 (NCI-H460 lung) was 2.19 µM and the TGI (NCI-H460 lung) was 8.82 µM. It also gave a GI50 (COLO 205 colon) of 5.11 µM, a TGI (COLO 205 colon) of 17.6 µM and a GI50 (SK-OV-3 ovarian) of 2.06 µM. It also gave a TGI (SK-OV-3 ovarian) of 6.07 µM, a GI50 (A498 renal) of 2.27 µM and a TGI (A498 renal) of 6.31 µM. It also gave a GI50 (HS 578T breast) of 1.93 µM, a TGI (HS 578T breast) of 6.55 µM and a GI50 (LOX IMVI melanoma) of 2.89 µM. The TGI (LOX IMVI melanoma) was 8.25 µM, the GI50 (CCRF-CEM leukemia) was 3.34 µM and the TGI (CCRF-CEM leukemia) was > 100 µM. For the same compound, the GI50 (HT29 colon) was 4.79 µM, the TGI (HT29 colon) was 26.8 µM and the GI50 (TK-10 renal) was 3.57 µM. The TGI (TK-10 renal) was 13.5 µM, the GI50 (SR leukemia) was 2.39 µM and the TGI (SR leukemia) was 9.53 µM. It also gave a GI50 (K-562 leukemia) of 2.01 µM, a TGI (K-562 leukemia) of 11.9 µM and a GI50 (HOP-92 NSCLC) of 1.56 µM. For the same compound, the TGI (HOP-92 NSCLC) was 5.45 µM, the GI50 (SNB-75 CNS) was 1.05 µM and the TGI (SNB-75 CNS) was 4.68 µM. For the same compound, the GI50 (UACC-62 melanoma) was 1.29 µM, the TGI (UACC-62 melanoma) was 3.72 µM and the GI50 (U251 CNS) was 3.01 µM. For the same compound, the TGI (U251 CNS) was 12.5 µM, the GI50 (NCI-H522 lung) was 1.74 µM and the TGI (NCI-H522 lung) was 7.65 µM. It also gave a GI50 (M14 melanoma) of 2.3 µM, a TGI (M14 melanoma) of 6.88 µM and a GI50 (RXF 393 renal) of 1.65 µM. It also gave a TGI (RXF 393 renal) of 5.45 µM, a GI50 (NCI-H226 lung) of 2.1 µM and a TGI (NCI-H226 lung) of 7 µM. The GI50 (HL-60(TB) leukemia) was 1.78 µM, the TGI (HL-60(TB) leukemia) was 4.44 µM and the GI50 (T-47D breast) was 1.86 µM. The TGI (T-47D breast) was 6.61 µM, the GI50 (786-0 renal) was 2.75 µM and the TGI (786-0 renal) was 9.2 µM. It also gave a GI50 (KM12 colon) of 2.57 µM, a TGI (KM12 colon) of 6.83 µM and a GI50 (OVCAR-3 ovarian) of 2.98 µM. For the same compound, the TGI (OVCAR-3 ovarian) was 12.9 µM, the GI50 (OVCAR-4 ovarian) was 2.49 µM and the TGI (OVCAR-4 ovarian) was 15.2 µM. For the same compound, the GI50 (ACHN renal) was 2.42 µM, the TGI (ACHN renal) was 10.3 µM and the GI50 (PC-3 prostate) was 3.08 µM. It also gave a TGI (PC-3 prostate) of 13.4 µM, a GI50 (MDA-MB-435) of 2.17 µM and a TGI (MDA-MB-435) of 7.05 µM. The GI50 (SF-295 CNS) was 2.42 µM, the TGI (SF-295 CNS) was 6.2 µM and the GI50 (OVCAR-5 ovarian) was 3.39 µM. For the same compound, the TGI (OVCAR-5 ovarian) was 38.9 µM, the GI50 (RPMI-8226 leukemia) was 1.67 µM and the TGI (RPMI-8226 leukemia) was 9.57 µM. For the same compound, the GI50 (HCC-2998 colon) was 3.28 µM, the TGI (HCC-2998 colon) was 11.6 µM and the GI50 (SW-620 colon) was 3.05 µM. It also gave a TGI (SW-620 colon) of 11.9 µM, a GI50 (NCI-H23 lung) of 1.69 µM and a TGI (NCI-H23 lung) of 4.8 µM. It also gave a GI50 (HOP-62 NSCLC) of 2.24 µM, a TGI (HOP-62 NSCLC) of 5.38 µM and a GI50 (BT-549 breast) of 1.59 µM. The TGI (BT-549 breast) was 4.05 µM, the GI50 (UO-31 renal) was 2.49 µM and the TGI (UO-31 renal) was 12.3 µM. It also gave a GI50 (HCT-116 colon) of 2.04 µM and a TGI (HCT-116 colon) of 5.62 µM.
